Measurements from patent publication US9987361B1, “Compositions and method for sustained drug delivery by active transdermal technology” (Noven Pharmaceuticals, Inc., priority 2014, dated 2018).

How the values were obtained:
[1] = system: microchannels in skin made by a microneedle device; test: In vivo impedance after microneedle pretreatment; details: swine; DPG formulated with saturated compound, applied after microneedle pretreatment; FIG. 5
Description: Impedance (Z) was assessed in vivo in swine as a measure of skin integrity using the compositions described above. Microneedle devices were inserted into swine with an applicator and removed, followed by application of the formulations. Impedance was measured before and after microneedle pretreatment, and during application of the formulations (formulations were removed and reapplied at every time point).
FIG. 5 illustrates the in vivo impedance measured before and after microneedle pretreatment for the five formulations.

[2] = system: microchannels in skin made by a microneedle device; test: In vivo transepidermal water loss (TEWL) after microneedle pretreatment; details: swine; DPG formulated with saturated compound, applied after microneedle pretreatment; FIG. 4
Description: Transepidermal water loss (TEWL) was assessed in vivo in swine as an indicator of skin integrity before and after microneedle pretreatment, using dipropylene glycol (DPG) formulated with saturated (i) cholesterol, (ii) curcumin, (iii) glycyrrhizin, (iv) diclofenac, or (v) no anti-healing compound. The diclofenac formulation was used as a positive control, and the formulation with no anti-healing compound was used as a negative control. Microneedle devices were inserted into swine skin with an applicator and removed, followed by application of the formulations. TEWL was measured before and after microneedle pretreatment, and during application of the formulations (formulations were removed and reapplied at every time point).
FIG. 4 illustrates the in vivo transepidermal water loss measured before and after microneedle pretreatment for the five formulations.

microchannels = details: reported in the literature; cited from earlier work

| Compound | impedance (Z) [1] | transepidermal water loss (TEWL), sustained level [2] | lifetime of microchannels (microchannels) |
| --- | --- | --- | --- |
| COc1cc(/C=C/C(=O)CC(=O)/C=C/c2ccc(O)c(OC)c2)ccc1O [curcumin] | low impedance throughout the study | higher sustained levels of TEWL than the formulation with no anti-healing compound | – |
| O=C(O)Cc1ccccc1Nc1c(Cl)cccc1Cl [diclofenac, reference compound] | low impedance throughout the study | highest sustained level of TEWL | extend the lifetime of microchannels |
| CC(C)CCC[C@@H](C)[C@H]1CC[C@H]2[C@@H]3CC=C4C[C@@H](O)CC[C@]4(C)[C@H]3CC[C@]12C [cholesterol] | low impedance throughout the study | higher sustained levels of TEWL than the formulation with no anti-healing compound | – |
| CC1(C)[C@@H](O[C@H]2O[C@H](C(=O)O)[C@@H](O)[C@H](O)[C@H]2O[C@@H]2O[C@H](C(=O)O)[C@@H](O)[C@H](O)[C@H]2O)CC[C@]2(C)[C@H]3C(=O)C=C4[C@@H]5C[C@@](C)(C(=O)O)CC[C@]5(C)CC[C@@]4(C)[C@]3(C)CC[C@@H]12 [glycyrrhizin] | low impedance throughout the study | higher sustained levels of TEWL than the formulation with no anti-healing compound | – |
